In publication PMC11062899, “De novo development of small cyclic peptides that are orally bioavailable” (Nature Chemical Biology, 2023):
“And” between values parts separate entries of the source, which are not always exact repeats. Equal values may be shown once. Read-outs that look alike come from different tables or passages of the source.

Columns and labels:
human α-thrombin = human α-thrombin (Homo sapiens, UniProt P00734); test: Protease inhibition, Ki for human α-thrombin (fluorogenic substrate Z-Gly-Gly-Arg-AMC); type: biochemical; conditions: human alpha thrombin; for Slope normalized to DMSO (proteolytic substrate cleavage over time): replicates R1-R3; for IC50: read-out: IC50, human alpha thrombin inhibition
Outline: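 Ki derived through Cheng–Prusoff from IC50s (four-parameter logistic fit) against activity of peptide-free controls. Product fluorescence was read every 3 min over 30 min at 25 °C, substrate Z-Gly-Gly-Arg-AMC at 50 μM. Enzyme was 2 nM human or 3 nM rat α-thrombin, pH 7.4 buffer.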

[1] = Passive artificial membrane permeability (PAMPA); conditions: for PAMPA permeability: % permeability: 50 μM, 12–18 h, acceptor concentration relative to equilibrium; for Papp at 50 μM: PAMPA, pH 7.4; for Permeability% Average / Permeability%: top well sample vs theoretical equilibrium sample (TIC); for Permeability% Average: average of R1-R3; for Permeability%: single replicates R1-R3
[2] = average of R1-R3, read-out: Ki Average, human alpha thrombin inhibition
[3] = single replicates R1-R3, read-out: Ki, human alpha thrombin inhibition

Structure (SMILES)	Ki (human α-thrombin; [2])	Slope normalized to DMSO (proteolytic substrate cleavage over time) (human α-thrombin; peptide 1.02E-03 uM)	Slope normalized to DMSO (proteolytic substrate cleavage over time) (human α-thrombin; peptide 1.27E-04 uM)	Slope normalized to DMSO (proteolytic substrate cleavage over time) (human α-thrombin; peptide 1.30E-01 uM)	Slope normalized to DMSO (proteolytic substrate cleavage over time) (human α-thrombin; peptide 1.59E-05 uM)	Slope normalized to DMSO (proteolytic substrate cleavage over time) (human α-thrombin; peptide 1.63E-02 uM)	Slope normalized to DMSO (proteolytic substrate cleavage over time) (human α-thrombin; peptide 2.03E-03 uM)	Slope normalized to DMSO (proteolytic substrate cleavage over time) (human α-thrombin; peptide 2.54E-04 uM)	Slope normalized to DMSO (proteolytic substrate cleavage over time) (human α-thrombin; peptide 2.60E-01 uM)	Slope normalized to DMSO (proteolytic substrate cleavage over time) (human α-thrombin; peptide 3.18E-05 uM)	Slope normalized to DMSO (proteolytic substrate cleavage over time) (human α-thrombin; peptide 3.26E-02 uM)	Slope normalized to DMSO (proteolytic substrate cleavage over time) (human α-thrombin; peptide 4.07E-03 uM)	Slope normalized to DMSO (proteolytic substrate cleavage over time) (human α-thrombin; peptide 5.09E-04 uM)	Slope normalized to DMSO (proteolytic substrate cleavage over time) (human α-thrombin; peptide 5.21E-01 uM)	Slope normalized to DMSO (proteolytic substrate cleavage over time) (human α-thrombin; peptide 6.36E-05 uM)	Slope normalized to DMSO (proteolytic substrate cleavage over time) (human α-thrombin; peptide 6.51E-02 uM)	Slope normalized to DMSO (proteolytic substrate cleavage over time) (human α-thrombin; peptide 7.95E-06 uM)	Slope normalized to DMSO (proteolytic substrate cleavage over time) (human α-thrombin; peptide 8.14E-03 uM)	IC50 (human α-thrombin; single replicates R1-R3)	Ki (human α-thrombin; [3])	further results
O=C1C[C@H]2CCCN2C(=O)[C@H](Cc2ccccc2)NC(=O)[C@@H](NC(=O)c2ccc(Cl)s2)CCSC/C=C/CSCCN1 [compound 34]	21 nM	77.8 and 82.6 and 87.7	85.2 and 86.3 and 97.5	23.7 and 29.7 and 31.1	99.4 and 93.2 and 99.6	62.9 (2×) and 53.3	91.1 and 82.2 and 86.6	95.6 and 96.7 and 91.7	14.6 and 25.5 and 20.4	103.9 and 99.1 and 101.2	46.1 and 40.2 and 49.8	82.6 and 77.6 and 83.2	88.5 and 86.7 and 91.9	17.1 and 15.0	96.5 and 103.5 and 97.9	35.9 and 37.8 and 41.0	100.7 and 95.5 and 98.4	73.2 and 59.3 and 66.6	30.2 nM and 20 nM and 31.5 nM	23.3 nM (2×) and 15.4 nM (2×) and 24.2 nM (2×)	PAMPA permeability: % permeability [1]: 37 ± 1%; Papp at 50 μM [1]: 4.57 ×10⁻⁶ cm/s; Permeability% Average [1]: 37.0%; Permeability% [1]: 36.96% and 38.34% and 35.81%
O=C1C[C@H]2CCCN2C(=O)[C@H](Cc2ccccc2)NC(=O)[C@@H](NC(=O)c2ccc(Cl)s2)CCCSCc2cccc(n2)CSCCN1 [compound 35]	62.8 nM	93.6 and 100.9 and 97.6	93.4 and 102.6 and 100.9	39.5 and 49.3 and 44.8	106.2 and 101.5 and 96.8	75.0 and 77.8 and 78.6	88.5 and 91.4 and 92.0	95.8 and 99.6 and 97.3	30.6 and 32.4 and 32.2	97.7 and 98.2 and 93.3	69.6 and 73.9 and 66.3	82.9 and 85.6 and 85.5	91.0 and 91.5 and 96.2	17.9 and 15.7 and 18.4	96.3 and 98.6 and 101.5	47.1 and 63.8 and 53.5	96.2 and 102.7 and 103.6	70.3 and 73.9 and 78.9	77.8 nM and 89.4 nM and 77.2 nM	59.9 nM (2×) and 68.9 nM (2×) and 59.5 nM (2×)	Slope normalized to DMSO (proteolytic substrate cleavage over time) (human α-thrombin; peptide 1.04E+00 uM): 8.6 and 16.9 and 12.9; Slope normalized to DMSO (proteolytic substrate cleavage over time) (human α-thrombin; peptide 1.67E+01 uM): -7.7 and 7.5 and 5.3; Slope normalized to DMSO (proteolytic substrate cleavage over time) (human α-thrombin; peptide 2.08E+00 uM): 6.1 and 11.4 and 10.4; Slope normalized to DMSO (proteolytic substrate cleavage over time) (human α-thrombin; peptide 3.33E+01 uM): 2.9 and 7.3 and 3.8; Slope normalized to DMSO (proteolytic substrate cleavage over time) (human α-thrombin; peptide 4.17E+00 uM): 2.6 and 6.0 and 6.1; Slope normalized to DMSO (proteolytic substrate cleavage over time) (human α-thrombin; peptide 6.67E+01 uM): 2.7 and 9.5 and 7.0; Slope normalized to DMSO (proteolytic substrate cleavage over time) (human α-thrombin; peptide 8.33E+00 uM): 3.3 and 5.4 and 3.6; PAMPA permeability: % permeability [1]: 21 ± 8%; Papp at 50 μM [1]: 2.24 ×10⁻⁶ cm/s; Permeability% Average [1]: 21.1%; Permeability% [1]: 16.62% and 15.98% and 30.80%
O=C1C[C@H]2CCCN2C(=O)[C@H](Cc2ccccc2)NC(=O)[C@@H](NC(=O)c2ccc(Cl)s2)CCCSC/C=C/CSCCN1 [compound 36]	286 nM	96.6 and 96.1 and 97.6	99.5 and 101.3 and 100.1	62.0 and 52.8 and 61.8	98.6 and 105.1 and 101.6	86.9 and 79.7 and 80.1	95.9 and 89.0 and 96.4	98.5 and 99.2 and 101.9	51.6 and 49.5 and 56.4	101.8 and 100.2 and 98.7	82.4 (2×) and 76.9	100.1 and 90.9 and 93.8	105.8 and 102.8 and 98.4	63.9 and 55.1 and 63.1	96.6 and 96.9 and 98.9	69.9 and 61.7 and 72.5	102.0 and 99.6 and 99.3	95.5 and 84.9 and 92.8	453 nM and 218 nM and 444 nM	349 nM and 168 nM and 342 nM	Slope normalized to DMSO (proteolytic substrate cleavage over time) (human α-thrombin; peptide 1.04E+00 uM): 45.5 and 28.3 and 38.4; Slope normalized to DMSO (proteolytic substrate cleavage over time) (human α-thrombin; peptide 1.67E+01 uM): 5.9 and 8.4 and 12.3; Slope normalized to DMSO (proteolytic substrate cleavage over time) (human α-thrombin; peptide 2.08E+00 uM): 22.1 and 26.4 and 30.9; Slope normalized to DMSO (proteolytic substrate cleavage over time) (human α-thrombin; peptide 3.33E+01 uM): 6.3 and 6.8 and 11.7; Slope normalized to DMSO (proteolytic substrate cleavage over time) (human α-thrombin; peptide 4.17E+00 uM): 10.9 and 18.5 and 22.2; Slope normalized to DMSO (proteolytic substrate cleavage over time) (human α-thrombin; peptide 6.67E+01 uM): 8.8 and 12.5 and 11.5; Slope normalized to DMSO (proteolytic substrate cleavage over time) (human α-thrombin; peptide 8.33E+00 uM): 4.1 and 13.8 and 13.6; PAMPA permeability: % permeability [1]: 26 ± 9%; Papp at 50 μM [1]: 2.88 ×10⁻⁶ cm/s; Permeability% Average [1]: 26.1%; Permeability% [1]: 30.77% and 15.94% and 31.49%
